Where only a bound is given, the exact number is not on record here.

One assay relates to pERK in HCT-116 cells (KRAS G13D). The assay can be described thus: Phospho-ERK inhibition (AlphaLISA SureFire Ultra p-ERK 1/2), HCT116. Format: cell-based, human. The conditions noted are these: HCT116 cells; Ymin in brackets. The method, then: All cancer cell lines (A375, A101D, A2058, RKO, HT29 SK-MEL 30, IPC298, HepG2, HCT-116, Lovo, SWV620, SW480, NCI-H358, NCI-H2122, Calu-6, NCIH2087, NCIH1755, NCIH1666 and Mewo) were obtained from ATCC and cultured in RPMI-1640 medium (Gibco) supplemented with 5% heat inactivated fetal bovine serum (FBS, Wisent) at 37° C. under 5% CO2. Cells were maintained in T175 flasks (Greiner). They were passaged by removing the culture medium, washing once in 10 mL of room temperature Phosphate Buffered Saline (PBS; Wisent) and incubating at 37° C. with 2 mL of 0.05% Trypsin (Thermo-Fisher). Trypsin was then inactivated by adding complete growth medium and the cells were then replated in a T175 culture dish at the appropriate dilution. All cell lines were routinely tested for mycoplasma contamination. Tissue type and mutational status of each cell line can be found in Table B.
AlphaLISA® SureFire® Ultra™ p-ERK 1/2 (Thr202/Tyr204) analysis was conducted on cells plated in 100 μL of complete RPMI-1640 growth medium in 96-well flat-bottomed transparent dishes (Costar) at a density indicated in Table C. Cells were maintained overnight at 37° C. under 5% CO2 before treatment with compounds' dilution series for one hour. The cell density in cells/cm^2 corresponds to cell number divided by the area of one well of a 96-well plate ([…]).
In a dilution series 100 μL/well of test substance dilution prepared in complete RPMI-1640 growth media was added to the cells. The dilution series is selected so that ten concentrations cover a range from 10 μM to 0.33 nM. If necessary the initial concentration of 10 μM is increased to 100 μM or lowered to 1 μM (as in the case of A375 and H1666 cells, which are generally more sensitive to the compounds) and further dilution is carried out accordingly. The final concentration of DMSO in the assay is set at 0.5%.
After treatment, media was removed and cells were lysed in 50 μL of 1× AlphaScreen Ultra Lysis Buffer (Perkin Elmer). The AlphaLISA® SureFire® Ultra™ p-ERK 1/2 (Thr202/Tyr2O4) (PerkinElmer) reactions were performed with 5 μL of cell lysate according to the manufacturer's specifications in 384-well proxyplates (Perkin Elmer) followed by overnight incubation of the reactions at room temperature in a humidified chamber. After completion of the reactions, the signals were recorded on an EnVision plate reader (Perkin Elmer) using built in AlphaLISA® settings.
The effect of each compound dilution on the pERK signal was expressed in % inhibition and calculated as follows. An internal 100% inhibition control ([…] trametinib, cat #HY-10999; MedChem Express; CAS #871700-17-3) was included in each plate and used as a measure of pERK background. First, the value obtained for trametinib was subtracted from each data point. The average of DMSO (vehicle) controls (set as 0% inhibition) was established and used to calculate % inhibition: % inhibition=100*(1-((pERK signalcompound)/(pERK signalDMSO)))
The ability of each compound to inhibit pERK signal was expressed as an IC50 value obtained by plotting the inhibition values for each data point of a dilution series and fitting the obtained curves using a log(agonist) versus response-variable slope (four parameters) function using GraphPadPrism (V7.0) or Dotmatics Screening Ultra platform.
When present, paradoxical pERK induction is inferred from the negative % inhibition values observed in the pERK IC50 curves of a compound.
On the technique in general: Bead proximity is the source of the signal in Alpha formats.
Turning to `O=S(=O)(Nc1ccc(F)c(Nc2ncnc3ccc(-n4cc(CO)c5ccccc54)nc23)c1F)c1ccccc1Cl` [Ex 88], the “HCT116 pERK Ymin %” value was −6%.

For `CCN(C)Cc1cccc2c1ncn2-c1ccc2ncnc(Nc3c(F)ccc(NS(=O)(=O)c4ccccc4Cl)c3F)c2n1` [Ex 221], the “HCT116 pERK Ymin %” value is given as −5%.

As to `CC(c1cccc2c1ncn2-c1ccc2ncnc(Nc3c(F)ccc(NS(=O)(=O)c4ccccc4Cl)c3F)c2n1)N1CCOCC1` (stereo not shown) [Example 237], the “HCT116 pERK Ymin %” value came out at 2.8%. Same read-out and setting: as for `O=S(=O)(Nc1ccc(F)c(Nc2ncnc3ccc(-n4cnc5c(CN6CCNCC6)cccc54)nc23)c1F)c1ccccc1Cl` [Ex 230], the figure is −3%; as for `O=S(=O)(Nc1ccc(F)c(Nc2ncnc3ccc(-n4cnc5c(CN6CCCCC6)cccc54)nc23)c1F)c1ccccc1Cl` [Ex 228], 2.0%.

With `O=S(=O)(Nc1ccc(F)c(Nc2ncnc3ccc(-n4cnc5c(CN6CCOCC6)cccc54)nc23)c1F)c1ccccc1Cl` [Ex 220], the “HCT116 pERK Ymin %” value is −1.7%. With `O=S(=O)(Nc1ccc(F)c(Nc2ncnc3ccc(-n4cnc5c(CN6CCC6)cccc54)nc23)c1F)c1ccccc1Cl` [Ex 218], the “HCT116 pERK Ymin %” value is recorded as −6%.

Staying with this assay, now noted: HCT116 cells; class symbol.
Regarding `O=S(=O)(Nc1ccc(F)c(Nc2ncnc3ccc(-n4cc(S(=O)(=O)N5CC(O)C5)c5ccccc54)nc23)c1F)c1cccc(Cl)c1Cl` [Ex 455], the IC50 (as a rule, the point on the concentration scale where inhibition reaches its midpoint) is under 0.5 µM. Compound `CN(C)CCCS(=O)(=O)c1cn(-c2ccc3ncnc(Nc4c(F)ccc(NS(=O)(=O)c5cccc(Cl)c5Cl)c4F)c3n2)c2ccccc12` [Example 484] had a half-maximal inhibitory concentration (IC50) of under 0.5 µM. Same read-out and setting: as for `COCCOc1nccc2c1ncn2-c1ccc2ncnc(Nc3c(F)ccc(NS(=O)(=O)c4cccc(Cl)c4Cl)c3F)c2n1` [Example 522], the figure is 0.5 to 1 µM; as for `O=S(=O)(Nc1ccc(F)c(Nc2ncnc3ccc(-n4cnc5c(Cl)cccc54)nc23)c1F)c1cccc(Cl)c1Cl` [Ex 462], under 0.5 µM.

The compound `CN(C)CC(C)(C)S(=O)(=O)c1cn(-c2ccc3ncnc(Nc4c(F)ccc(NS(=O)(=O)c5cccc(Cl)c5Cl)c4F)c3n2)c2ccccc12` [Example 456] registered a concentration for half-maximal inhibition (IC50) of under 0.5 µM. The compound `Cc1c(F)cccc1S(=O)(=O)Nc1ccc(F)c(Nc2ncnc3ccc(-n4cnc5c(-c6cnccc6N)cccc54)nc23)c1F` [Example 420] gave an IC50 of 1 to 10 µM. For the compound `CC(C)N1CCC(S(=O)(=O)c2cn(-c3ccc4ncnc(Nc5c(F)ccc(NS(=O)(=O)c6cccc(Cl)c6Cl)c5F)c4n3)c3ccccc23)CC1` [Example 468], the IC50 is under 0.5 µM. The same measure, in the same setting: to `CC(=O)N1CCc2cnn(-c3ccc4ncnc(Nc5c(F)ccc(NS(=O)(=O)c6cccc(F)c6C)c5F)c4n3)c2C1` [Example 393] belongs 0.5 to 1 µM. Still for that read-out and setting: as for `CC(=O)N1CCCc2nn(-c3ccc4ncnc(Nc5c(F)ccc(NS(=O)(=O)c6cccc(F)c6C)c5F)c4n3)cc21` [Example 357], the figure is 0.5 to 1 µM. Regarding `Cc1c(F)cccc1S(=O)(=O)Nc1ccc(F)c(Nc2ncnc3ccc(-n4ncc5c4CN(CC(N)=O)CC5)nc23)c1F` [Example 531], the IC50 was in the range of 1 to 10 µM. Compound `CP(C)(=O)c1cn(-c2ccc3ncnc(Nc4c(F)ccc(NS(=O)(=O)c5cccc(Cl)c5Cl)c4F)c3n2)c2ccccc12` [Example 472] registered an IC50 of 1 to 10 µM.

On to `CN(C)C1CCN(S(=O)(=O)c2cn(-c3ccc4ncnc(Nc5c(F)ccc(NS(=O)(=O)c6cccc(Cl)c6Cl)c5F)c4n3)c3ccccc23)CC1` [Ex 387], for which the IC50 is under 0.5 µM. Turning to `N#CC1(c2cccc3c2ncn3-c2ccc3ncnc(Nc4c(F)ccc(NS(=O)(=O)c5cccc(Cl)c5Cl)c4F)c3n2)CC1` [Example 552], the IC50 was under 0.5 µM. With `Cc1c(F)cccc1S(=O)(=O)Nc1ccc(F)c(Nc2ncnc3ccc(-n4cnc5c(N(CCO)CCO)cccc54)nc23)c1F` [Example 351], the IC50 was under 0.5 µM.

On to `Nc1nccc2c1ncn2-c1ccc2ncnc(Nc3c(F)ccc(NS(=O)(=O)c4cccc(Cl)c4Cl)c3F)c2n1` [Example 348], for which the IC50 was under 0.5 µM. Still for that read-out and setting: to `CN(C)CCN(C)S(=O)(=O)c1cn(-c2ccc3ncnc(Nc4c(F)ccc(NS(=O)(=O)c5cccc(Cl)c5Cl)c4F)c3n2)c2ccc(F)cc12` [Example 444] belongs under 0.5 µM; to `Cc1c(F)cccc1S(=O)(=O)Nc1ccc(F)c(Nc2ncnc3ccc(-n4cnc5c(CC#N)cccc54)nc23)c1F` [Example 361], under 0.5 µM. For the compound `O=S(=O)(Nc1ccc(F)c(Nc2ncnc3ccc(-n4cc(-c5ccccc5)nn4)nc23)c1F)c1cccc(Cl)c1Cl` [Example 534], the IC50 is under 0.5 µM.

`CC1(O)CCN(S(=O)(=O)c2cn(-c3ccc4ncnc(Nc5c(F)ccc(NS(=O)(=O)c6cccc(Cl)c6Cl)c5F)c4n3)c3ccccc23)CC1` [Ex 458] had an IC50 of under 0.5 µM. As for `Cc1c(F)cccc1S(=O)(=O)Nc1ccc(F)c(Nc2ncnc3ccc(-n4cnc(CCC#N)c4)nc23)c1F` [Example 347], the IC50 was under 0.5 µM.

Regarding `CC(C)(CN1CCOCC1)S(=O)(=O)c1cn(-c2ccc3ncnc(Nc4c(F)ccc(NS(=O)(=O)c5cccc(Cl)c5Cl)c4F)c3n2)c2ccccc12` [Example 457], the IC50 was under 0.5 µM.

The compound `CC(C)(CO)S(=O)(=O)c1cn(-c2ccc3ncnc(Nc4c(F)ccc(NS(=O)(=O)c5cccc(Cl)c5Cl)c4F)c3n2)c2ccccc12` [Example 447] returned an IC50 of under 0.5 µM. On to `CS(=O)(=O)c1cccc2c1ncn2-c1ccc2ncnc(Nc3c(F)ccc(NS(=O)(=O)c4cccc(Cl)c4Cl)c3F)c2n1` [Example 521], for which the IC50 is 1 to 10 µM. Compound `CC(C)(C#N)c1cccc2c1ncn2-c1ccc2ncnc(Nc3c(F)ccc(NS(=O)(=O)c4cccc(Cl)c4Cl)c3F)c2n1` [Example 520] had an IC50 of under 0.5 µM. Compound `O=[N+]([O-])c1cn(-c2ccc3ncnc(Nc4c(F)ccc(NS(=O)(=O)c5cccc(Cl)c5Cl)c4F)c3n2)c2ccccc12` [Example 506] showed an IC50 of 1 to 10 µM. Compound `Cc1cc(N)ccc1S(=O)(=O)Nc1ccc(F)c(Nc2ncnc3ccc(-n4cnc5c(N)cccc54)nc23)c1F` [Example 369] showed an IC50 of 0.5 to 1 µM. Compound `COCCN(CCOC)c1cccc2c1ncn2-c1ccc2ncnc(Nc3c(F)ccc(NS(=O)(=O)c4cccc(F)c4C)c3F)c2n1` [Example 376] registered a 50% inhibitory concentration (IC50) of 0.5 to 1 µM. Still for that read-out and setting: to `CN(CCc1ccccn1)C(=O)c1nn(-c2ccc3ncnc(Nc4c(F)ccc(NS(=O)(=O)c5cccc(Cl)c5Cl)c4F)c3n2)c2ccccc12` [Ex 370] belongs under 0.5 µM. On the same count and under the same terms, to `O=S(=O)(Nc1ccc(F)c(Nc2ncnc3ccc(-n4cc(S(=O)(=O)N5CCN(CCOCCO)CC5)c5ccccc54)nc23)c1F)c1cccc(Cl)c1Cl` [Ex 378] belongs under 0.5 µM; to `O=S(=O)(Nc1ccc(F)c(Nc2ncnc3ccc(-n4cc(CC5CCN(CC(F)F)CS5(=O)=O)c5ccccc54)nc23)c1F)c1cccc(Cl)c1Cl` (stereo not shown) [Example 488], under 0.5 µM; to `CC(=O)c1cn(-c2ccc3ncnc(Nc4c(F)ccc(NS(=O)(=O)c5cccc(Cl)c5Cl)c4F)c3n2)c2ccccc12` [Ex 464], 1 to 10 µM. Still for that read-out and setting: as for `O=S(=O)(Nc1ccc(F)c(Nc2ncnc3ccc(-n4cc(S(=O)(=O)C5CCN(C6CCC6)CC5)c5ccccc54)nc23)c1F)c1cccc(Cl)c1Cl` [Example 470], the figure is under 0.5 µM; as for `O=S(=O)(Nc1ccc(F)c(Nc2ncnc3ccc(-c4cscn4)nc23)c1F)c1cccc(Cl)c1Cl` [Example 536], 0.5 to 1 µM.

In turn, `Cc1c(F)cccc1S(=O)(=O)Nc1ccc(F)c(Nc2ncnc3ccc(-n4cnc5c(C#N)cccc54)nc23)c1F` [Example 329] had an IC50 of 1 to 10 µM. Same read-out and setting: to `O=S(=O)(CC1CCOCC1)c1cn(-c2ccc3ncnc(Nc4c(F)ccc(NS(=O)(=O)c5cccc(Cl)c5Cl)c4F)c3n2)c2ccccc12` [Ex 442] belongs under 0.5 µM.

Staying with this assay, now noted: HCT116 cells; class symbol before the bracket.
Compound `O=S(=O)(Nc1ccc(F)c(Nc2ncnc3ccc(-n4cc(CO)c5ccccc54)nc23)c1F)c1ccccc1Cl` [Ex 88] gave a 50% inhibitory concentration (IC50) of 1 to 10 µM. Still for that read-out and setting: as for `CCN(C)Cc1cccc2c1ncn2-c1ccc2ncnc(Nc3c(F)ccc(NS(=O)(=O)c4ccccc4Cl)c3F)c2n1` [Ex 221], the figure is 0.5 to 1 µM; as for `CC(c1cccc2c1ncn2-c1ccc2ncnc(Nc3c(F)ccc(NS(=O)(=O)c4ccccc4Cl)c3F)c2n1)N1CCOCC1` (stereo not shown) [Example 237], 0.5 to 1 µM. In turn, `O=S(=O)(Nc1ccc(F)c(Nc2ncnc3ccc(-n4cnc5c(CN6CCNCC6)cccc54)nc23)c1F)c1ccccc1Cl` [Ex 230] displayed an IC50 of 1 to 10 µM. The compound `O=S(=O)(Nc1ccc(F)c(Nc2ncnc3ccc(-n4cnc5c(CN6CCCCC6)cccc54)nc23)c1F)c1ccccc1Cl` [Ex 228] displayed an IC50 of 0.5 to 1 µM. As for `O=S(=O)(Nc1ccc(F)c(Nc2ncnc3ccc(-n4cnc5c(CN6CCOCC6)cccc54)nc23)c1F)c1ccccc1Cl` [Ex 220], the IC50 lay within 0.5 to 1 µM. Consider `O=S(=O)(Nc1ccc(F)c(Nc2ncnc3ccc(-n4cnc5c(CN6CCC6)cccc54)nc23)c1F)c1ccccc1Cl` [Ex 218], for which the IC50 lay in the range of 0.5 to 1 µM.

The values above are taken from patent US12139488B2, “Pyrido[3,2-d]pyrimidine compounds uses thereof for treating a proliferative disease” (Universite de Montreal, priority 2021, dated 2024).
